Publication PMC8537327, “EGFR-Targeted Pentacyclic Triterpene Analogues for Glioma Therapy” (International Journal of Molecular Sciences, 2021)

Experiments:
[1] = system: human peripheral blood mononuclear cells (PBMCs); test: MTT cytotoxicity assay, PBMCs; assay type: cell-based; details: 72 h
Method: (§1) U251, T98G (Japanese Collection of Research Bioresources Cell Bank), and U87 human glioblastoma cell lines were incubated in Dulbecco’s Modified Eagle Medium (DMEM)/Ham’s F12 (Wako Pure Chemical Industries, Osaka, Japan), Eagle’s Minimum Essential Medium (EMEM; Wako Pure Chemical Industries, Osaka, Japan), and DMEM (Gibco/Thermo Fisher Scientific, Waltham, MA, USA) respectively, and supplemented with 10% fetal bovine serum (FBS; Sigma Aldrich, MO, USA). Jurkat human leukemic T-cell line was cultured in Roswell Park Memorial Institute (RPMI) 1640 (Wako Pure Chemical Industries, Osaka, Japan), supplemented with 10% FBS. PBMCs (Precision Bioservices, Frederick, MD, USA) were incubated in RPMI 1640 and supplemented with 10% human serum AB (HS) (Gemini, Woodland, CA, USA). All media were supplemented with 89 μg/mL streptomycin (Meiji Seika Pharma, Tokyo, Japan) at 37 °C in a humid atmosphere and 5% CO2. For each experiment, growing cells were plated at 4 × 10^4 cells/mL and 6 × 10^5 cells/mL into 24-well and 96-well microtiter tissue culture plates (Iwaki brand Asahi Glass Co., Chiba, Japan) respectively and incubated for 72 h before the addition of the drugs (the optimal cell number for cytotoxicity assays was determined in preliminary experiments). The stock solutions of the compounds and cisplatin (Sigma-Aldrich, St. Louis, MO, USA) in concentrations between 0.1–10 mM were prepared in dimethyl sulfoxide (DMSO; Wako Pure Chemical Industries, Osaka, Japan) and in H2O respectively, then were added to fresh culture medium. The concentration of DMSO and H2O in the final culture medium was 1% which had no effect on the cell viability.
(§2) The MTT (Dojindo Molecular Technologies, Kumamoto, Japan) assay was carried out using the U251, T98G, U87, Jurkat, and PBMC cells to determine the cytotoxicity of compounds 1–13 and cisplatin as previously described in the literature with small modifications. Treated cells were incubated with different concentrations (1–100 µM) of the compounds for 72 h at 37 °C in the CO2 incubator. About 100 µL (1.1 mg/mL) of MTT solution was added to each well and after further incubation for 4 h, formazan crystals formed. At the end of this period, the medium was removed and the formazan crystals were solubilized by the addition of 100 μL DMSO to each well. The absorbance was read on an Infinite M1000 plate reader (Tecan, Mannedorf, Switzerland) at a wavelength of 550 nm with background subtraction at 630 nm. All experiments were performed in triplicate and IC50 values were defined as the drug concentrations that reduced absorbance to 50% of control values.

[2] = system: Jurkat human leukemic T-cells; test: MTT cytotoxicity assay, Jurkat cells; assay type: cell-based; details: for IC50: MTT, 72 h; for SI (selectivity index): SI = IC50 for PBMCs/IC50 for Jurkat cells
Method: as §1, §2

[3] = system: T98G human glioblastoma cells; test: MTT cytotoxicity assay, T98G cells; assay type: cell-based; details: for IC50: MTT, 72 h; for anticancer activity against T98G cells: at 100 µM concentration
Method: as §1, §2

[4] = system: U87 human glioblastoma cells; test: MTT cytotoxicity assay, U87 cells; assay type: cell-based; details: for IC50: MTT, 72 h; for anticancer activity against U87 cells: at 100 µM concentration
Method: as §1, §2

[5] = system: U251 human glioblastoma cells; test: MTT cytotoxicity assay, U251 cells; assay type: cell-based; details: for IC50: MTT, 72 h; for anticancer activity against U251 cells: at 100 µM concentration
Method: as §1, §2

U251 cells = test: Annexin V/ethidium homodimer III staining, apoptotic/necrotic cell detection; assay type: cell-based, human; details: 24 h; IC50 concentration (Figure 4 legend), 5 μM (method)
Method: U251 cells (4 × 10^4 cells/well) were seeded in each well of a 24-well plate with compound 10 and cisplatin at 5 μM concentration for 24 h. Then, the apoptotic/necrotic/healthy cells detection kit protocol was applied according to the manufacturer’s instructions (PromoKine, Heidelberg, Germany) with few modifications. Briefly, the cells were washed twice with 1 × binding buffer and then treated with FITC-Annexin V (5 μL), ethidium homodimer III (5 μL), and Hoechst 33342 (5 μL) for 20 min at room temperature in a protected-light environment. After washing in 1 × binding buffer, cells were analyzed under an all-in-one fluorescence microscope Biorevo Fluorescence BZ-9000 (Keyence, Osaka, Japan). Healthy cells, apoptotic cells, late apoptotic or necrotic cells, and necrotic cells were counted as previously described.

K562 CML cell line = system: K562 CML cell line; set-up: method as in PMID 31574910; details: previously reported by the authors; read-out: IC50, cytotoxic activity against K562 CML cell line; cited from earlier work
HER2 = biological target: T1, HER2 (Homo sapiens, UniProt P04626); test: Kinase profiling assay (ADP-Glo), HER2; assay type: biochemical; details: 30 µM concentration
T1 construct: purchased Promega Corporation
T1 sequence (P04626 23-1255): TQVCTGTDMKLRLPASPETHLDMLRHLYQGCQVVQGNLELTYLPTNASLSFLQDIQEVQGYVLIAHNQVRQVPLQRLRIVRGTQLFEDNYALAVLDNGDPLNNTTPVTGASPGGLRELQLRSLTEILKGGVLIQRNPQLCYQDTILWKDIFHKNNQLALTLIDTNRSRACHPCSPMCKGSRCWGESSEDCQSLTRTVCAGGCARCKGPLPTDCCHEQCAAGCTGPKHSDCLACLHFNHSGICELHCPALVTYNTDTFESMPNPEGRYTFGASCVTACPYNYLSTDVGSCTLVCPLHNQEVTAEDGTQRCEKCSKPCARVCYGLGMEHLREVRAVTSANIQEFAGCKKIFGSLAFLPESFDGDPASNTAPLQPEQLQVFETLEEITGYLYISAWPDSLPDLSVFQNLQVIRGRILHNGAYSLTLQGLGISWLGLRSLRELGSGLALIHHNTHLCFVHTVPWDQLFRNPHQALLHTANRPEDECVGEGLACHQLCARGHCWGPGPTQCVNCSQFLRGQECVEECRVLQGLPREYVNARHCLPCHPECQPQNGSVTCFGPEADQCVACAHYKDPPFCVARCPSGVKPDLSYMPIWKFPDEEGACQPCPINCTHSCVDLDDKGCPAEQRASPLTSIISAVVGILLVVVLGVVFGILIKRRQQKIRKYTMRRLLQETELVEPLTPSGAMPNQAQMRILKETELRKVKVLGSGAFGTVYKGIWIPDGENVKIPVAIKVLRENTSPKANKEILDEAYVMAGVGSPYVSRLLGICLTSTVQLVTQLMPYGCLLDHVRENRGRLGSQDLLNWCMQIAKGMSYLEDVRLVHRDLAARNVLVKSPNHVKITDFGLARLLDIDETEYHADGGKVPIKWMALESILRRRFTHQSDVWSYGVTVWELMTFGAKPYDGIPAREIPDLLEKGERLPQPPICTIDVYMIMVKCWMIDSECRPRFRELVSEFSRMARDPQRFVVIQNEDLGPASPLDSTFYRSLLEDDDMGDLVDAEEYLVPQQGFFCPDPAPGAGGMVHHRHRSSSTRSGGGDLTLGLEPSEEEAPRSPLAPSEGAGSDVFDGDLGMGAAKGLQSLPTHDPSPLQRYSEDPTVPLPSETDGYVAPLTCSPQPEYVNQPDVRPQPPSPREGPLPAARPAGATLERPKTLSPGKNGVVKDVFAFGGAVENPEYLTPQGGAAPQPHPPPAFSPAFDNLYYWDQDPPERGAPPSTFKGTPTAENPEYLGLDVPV
Method: (§3) The kinase profiling assay protocol (TK1 and TK-2) was applied according to the manufacturer‘s instructions (Promega Corporation, Madison, WI, USA) with few modifications. In regard to this protocol, the EGFR, HER2, HER4, IGF1R, InsR, KDR, PDGFR-α, PDGFR-β, ABL1, BRK, BTK, CSK, FYN A, LCK, LYN B, and SRC kinase stocks in the kinase strips were diluted with 95 µL 2.5x kinase buffer and their substrate stock in the substrate strip was diluted with 15 µL of 100 µM ATP solutions. Then, the kinase reactions were performed using 2 µL of the kinase working stocks, 2 µL of the ATP/substrate working stocks, and 1 µL of compound solution (0.1–100 µM) or 5% DMSO solution in the 384-well plate. After 4 h of incubation at room temperature, the activity of kinases was detected using ADP-Glo Kinase Assay (Promega Corporation, Madison, WI, USA) according to the manufacturer‘s protocol. Briefly, 5 µL of ADP-Glo reagent was added into each well of 384-well plate and the mixture was incubated at room temperature for 40 min to stop the kinase reaction and deplete any ATP remaining. Then, 10 µL Kinase Detection Reagent was added and the mixture was incubated for a further 30 min to convert the kinase-produced ADP to ATP, and then to light. […]

ABL1 = biological target: T2, ABL1 (Homo sapiens, UniProt P00519); test: Kinase profiling assay (ADP-Glo), ABL1; assay type: biochemical; details: 30 µM concentration
T2 construct: purchased Promega Corporation
T2 sequence (P00519 whole entry): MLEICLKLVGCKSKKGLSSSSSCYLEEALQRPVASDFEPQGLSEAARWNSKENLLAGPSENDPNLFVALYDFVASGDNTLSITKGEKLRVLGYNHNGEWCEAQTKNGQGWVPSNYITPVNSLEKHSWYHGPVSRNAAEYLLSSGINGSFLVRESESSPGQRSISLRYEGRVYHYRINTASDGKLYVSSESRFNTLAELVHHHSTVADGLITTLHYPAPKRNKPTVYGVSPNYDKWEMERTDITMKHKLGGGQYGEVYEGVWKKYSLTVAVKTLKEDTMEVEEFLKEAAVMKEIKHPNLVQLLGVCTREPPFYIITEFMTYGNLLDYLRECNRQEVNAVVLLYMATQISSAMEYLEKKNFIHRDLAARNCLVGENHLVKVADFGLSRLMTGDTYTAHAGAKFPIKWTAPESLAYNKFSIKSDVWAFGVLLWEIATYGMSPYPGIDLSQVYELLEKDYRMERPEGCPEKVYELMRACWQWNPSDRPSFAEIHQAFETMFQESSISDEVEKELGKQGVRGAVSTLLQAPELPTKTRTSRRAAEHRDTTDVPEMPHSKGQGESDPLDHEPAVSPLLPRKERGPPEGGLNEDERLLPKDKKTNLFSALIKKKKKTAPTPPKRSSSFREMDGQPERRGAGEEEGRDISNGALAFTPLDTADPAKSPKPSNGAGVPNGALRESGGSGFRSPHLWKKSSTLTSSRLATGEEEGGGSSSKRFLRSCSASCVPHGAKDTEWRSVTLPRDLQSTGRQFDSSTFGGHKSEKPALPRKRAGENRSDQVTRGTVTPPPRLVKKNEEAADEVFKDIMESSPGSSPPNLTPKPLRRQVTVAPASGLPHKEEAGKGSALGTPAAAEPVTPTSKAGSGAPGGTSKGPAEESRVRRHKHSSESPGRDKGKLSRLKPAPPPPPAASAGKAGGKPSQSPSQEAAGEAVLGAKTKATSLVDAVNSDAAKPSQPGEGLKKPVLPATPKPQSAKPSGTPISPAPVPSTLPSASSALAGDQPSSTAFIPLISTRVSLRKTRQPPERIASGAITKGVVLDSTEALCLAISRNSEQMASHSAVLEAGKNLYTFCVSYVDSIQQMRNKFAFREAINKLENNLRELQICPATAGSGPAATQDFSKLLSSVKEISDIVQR
Method: as §3

FYN A = biological target: T3, FYN A (Homo sapiens, UniProt P06241); test: Kinase profiling assay (ADP-Glo), FYN A; assay type: biochemical; details: 30 µM concentration
T3 construct: purchased Promega Corporation
T3 sequence (P06241 whole entry): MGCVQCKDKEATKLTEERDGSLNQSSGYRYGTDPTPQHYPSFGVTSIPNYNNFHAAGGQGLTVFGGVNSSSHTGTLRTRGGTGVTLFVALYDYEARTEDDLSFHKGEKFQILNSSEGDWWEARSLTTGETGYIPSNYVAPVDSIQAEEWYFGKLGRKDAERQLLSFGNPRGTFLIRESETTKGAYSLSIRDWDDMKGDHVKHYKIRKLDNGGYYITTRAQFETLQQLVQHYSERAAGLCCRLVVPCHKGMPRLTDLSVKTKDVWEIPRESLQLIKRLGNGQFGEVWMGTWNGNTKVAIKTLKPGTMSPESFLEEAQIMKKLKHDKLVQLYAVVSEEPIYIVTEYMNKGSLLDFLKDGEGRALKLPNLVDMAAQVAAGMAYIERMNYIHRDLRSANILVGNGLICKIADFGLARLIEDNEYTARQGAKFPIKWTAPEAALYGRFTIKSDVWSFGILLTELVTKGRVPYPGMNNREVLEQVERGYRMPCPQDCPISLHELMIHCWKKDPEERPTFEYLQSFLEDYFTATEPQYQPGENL
Method: as §3

| Compound | IC50 ([3]; Homo sapiens, T98G) | IC50 ([4]; Homo sapiens, U-87 MG) | IC50 ([5]; Homo sapiens, U-251) | further results |
| --- | --- | --- | --- | --- |
| N.N.[Cl][Pt][Cl] [Cisplatin, cisplatin, reference compound] | – | – | – | IC50 [1]: 34.7 ± 7.11 µM; IC50 [2]: 4.87 ± 2 µM; SI (selectivity index) [2]: 7.12; IC50 [3]: 16.9 ± 3.95 µM; IC50 [4]: 20.9 ± 5.16 µM; IC50 [5]: 7.7 ± 2.81 µM; apoptosis in U251 cells (U251 cells): 13.83% |
| C[C@H]1[C@H](C)CC[C@]2(C(=O)OCc3ccccc3)CC[C@]3(C)C(=CC[C@@H]4[C@@]5(C)C[C@@H](O)[C@H](O)[C@@](C)(CO)[C@@H]5CC[C@]43C)[C@H]12 [Compound 1] | 20.5 ± 4.34 µM | 22.6 ± 6.75 µM | 13.2 ± 3.19 µM | – |
| C=C(C)[C@@H]1CC[C@]2(C(=O)OCc3ccccc3)CC[C@]3(C)[C@H](CC[C@@H]4[C@@]5(C)CC[C@H](O)C(C)(C)[C@@H]5CC[C@]43C)[C@@H]12 [Compound 2] | > 100 µM | > 100 µM | 24 ± 4.98 µM | – |
| CC1(C)[C@@H](O)CC[C@]2(C)[C@H]3C(=O)C=C4[C@@H]5C[C@@](C)(C(=O)OCc6ccccc6)CC[C@]5(C)CC[C@@]4(C)[C@]3(C)CC[C@@H]12 [Compound 3] | > 100 µM | > 100 µM | > 100 µM | anticancer activity against T98G cells [3]: no significant anticancer activity; anticancer activity against U87 cells [4]: no significant anticancer activity; anticancer activity against U251 cells [5]: no significant anticancer activity |
| CC1(C)CC[C@]2(C(=O)OCc3ccccc3)CC[C@]3(C)C(=CC[C@@H]4[C@@]5(C)CC[C@H](O)[C@@](C)(CO)[C@@H]5CC[C@]43C)[C@@H]2C1 [Compound 4] | 9.86 ± 2.21 µM | 19.5 ± 4.52 µM | 8.06 ± 2.04 µM | IC50 ([1]; Homo sapiens, PBMC): 21.9 ± 5.13 µM; IC50 ([2]; Homo sapiens, Jurkat): 9.97 ± 3.24 µM; SI (selectivity index) [2]: 2.20 |
| C[C@H]1[C@H](C)CC[C@]2(C(=O)OCc3ccccc3)CC[C@]3(C)C(=CC[C@@H]4[C@@]5(C)CC[C@H](O)C(C)(C)[C@@H]5CC[C@]43C)[C@H]12 [Compound 6] | 64.1 ± 7.36 µM | 79.7 ± 10.1 µM | 16.7 ± 3.17 µM | – |
| CC1(C)CC[C@]2(C(=O)OCc3ccccc3)CC[C@]3(C)C(=CC[C@@H]4[C@@]5(C)CC[C@H](O)[C@@](C)(C=O)[C@@H]5CC[C@]43C)[C@@H]2C1 [Compound 7] | 61.1 ± 5.13 µM | 60.9 ± 8.87 µM | 18 ± 2.23 µM | – |
| CC1(C)CC[C@]2(C(=O)OCc3ccc(C#N)cc3)CC[C@]3(C)C(=CC[C@@H]4[C@@]5(C)CC[C@H](O)[C@@](C)(C=O)[C@@H]5CC[C@]43C)[C@@H]2C1 [Compound 9] | 56.6 ± 6.08 µM | > 100 µM | 14.1 ± 3.41 µM | IC50 (K562 CML cell line): 3.19 µM |
| CC1(C)CCC2(C(=O)O)CCC3(C)C(=CCC4C5(C)CCC(O)C(C)(CNCc6ccccc6)C5CCC43C)C2C1 (centres unmarked) [Compound 11, 9-((Benzylamino)methyl)-10-hydroxy-2,2,6a,6b,9,12a-hexamethyl-1,2,3,4,4a,5,6,6a,6b,7,8,8a,9,10,11,12,12a,12b,13,14b-icosahydropicene-4a-carboxylic acid] | > 100 µM | > 100 µM | > 100 µM | melting point: 246 to 249 °C; anticancer activity against T98G cells [3]: no significant anticancer activity; anticancer activity against U87 cells [4]: no significant anticancer activity; anticancer activity against U251 cells [5]: no significant anticancer activity |
| C[C@H](NCC1(C)C(O)CCC2(C)C1CCC1(C)C2CC=C2C3CC(C)(C)CCC3(C(=O)O)CCC21C)c1ccccc1 (stereo partly drawn) [Compound 12, 10-Hydroxy-2,2,6a,6b,9,12a-hexamethyl-9-[(((S)-1-phenylethyl)amino)methyl]-1,2,3,4,4a,5,6,6a,6b,7,8,8a,9,10,11,12,12a,12b,13,14b-icosahydropicene-4a-carboxylic acid] | > 100 µM | > 100 µM | > 100 µM | melting point: 240 to 243 °C; anticancer activity against T98G cells [3]: no significant anticancer activity; anticancer activity against U87 cells [4]: no significant anticancer activity; anticancer activity against U251 cells [5]: no significant anticancer activity |
| CC(=O)Nc1cccc(NCC2(C)C(O)CCC3(C)C2CCC2(C)C3CC=C3C4CC(C)(C)CCC4(C(=O)O)CCC32C)c1 (centres unmarked) [Compound 13, 9-[((3-Acetamidophenyl)amino)methyl]-10-hydroxy-2,2,6a,6b,9,12a-hexamethyl-1,2,3,4,4a,5,6,6a,6b,7,8,8a,9,10,11,12,12a,12b,13,14b-icosahydropicene-4a-carboxylic acid] | 20.2 ± 5.47 µM | 21.7 ± 6.09 µM | 9.95 ± 2.04 µM | IC50 ([1]; Homo sapiens, PBMC): 43.1 ± 8.32 µM; IC50 ([2]; Homo sapiens, Jurkat): 12.1 ± 1.64 µM; SI (selectivity index) [2]: 3.57; melting point: 265 to 267 °C |
| C#Cc1cccc(Nc2ncnc3cc(OCCOC)c(OCCOC)cc23)c1 [erlotinib, reference compound] | – | – | – | HER2 inhibition (HER2): moderate; ABL1 inhibition (ABL1): moderate; FYN A inhibition (FYN A): moderate |
